Source: patent US10493164B2, “Method for preventing and treating adhesions” (Joint Stock Company “Pharmasyntez”, priority 2011, dated 2019)

System: Adhesions in the peritoneal cavity
Assay: Adhesions in the peritoneal cavity generated in rats by caecum injury and abdominal wall scarification
Format: in vivo, Wistar rats
Experimental: (§1) Adhesions in the peritoneal cavity were generated in laboratory animals (Wistar rats, 9 months of age, weight of 220-250 g) by injuring the surface of caecum and abdominal wall scarification in the injured area. The study was conducted in compliance with the principles of the European Convention for the Protection of Vertebrate Animals used for Experimental and other Scientific Purposes (Strasbourg, France, 1986), as well as with regulations for humane treatment specified in Guidance for Proper Conduct of Animal Experiments (Attachment to Order No. 755 of the Ministry of Health of the USSR, dated Aug. 12, 1977).
Ten laboratory animals were used in this study. They were divided into 2 groups: the experimental group and the control group.
The calculation was based on the minimum volume of solution required to moisten the peritoneal surface (diZerega G. S. Peritoneum, peritoneal healing and adhesion formation/G. S. diZerega//in: Perotoneal surgery: Ed. G. S. diZerega.—Berlin—Heidelberg—New York: Springer, 2006.—P. 3-38), and the concentration was calculated on the basis of IC50 in the boundary layer of cells. The control animals received a corresponding amount of normal saline solution.
On Day 28 after the abdominal cavity being injured, all animals were autopsied for the examination of abdominal cavity organs and the assessment of the severity and incidence of adhesions, deformation of abdominal cavity organs and distribution of different types of adhesions. The severity of adhesions was scored according to micro- and macroscopic adhesion scales [Micronized purified flavonoid fraction may prevent formation of intraperitoneal adhesions in rats//H. G. Yilmaz, I. H. Tacyildiz, C. Keles et al.//Fertil. Steril.—2005.—Vol. 84, Suppl. 2.—P 1083-1087].
The visceral peritoneum and abdominal organs involved in adhesion formation were examined histologically after fixation in FineFIX solution (Milestone), paraffin filling, staining with hematoxylin-eosin and van Gieson's staining.
as §1, with “surface of the caecum and” for “surface of caecum and”
Thirty laboratory animals were used in this study. They were divided into 2 groups: the experimental group and the control group. […]

Row | Compound | signs of adhesions in histological section of intestinal wall (van Gieson's staining) (Example 5, FIG. 1, abdominal trauma zone and area of postoperative suture) | cases of intestinal wall adhesions (Example 5: 3 ml sterile solution 10 μg/ml injected once before celiorrhaphy, autopsy Day 28) | severity of adhesion formation (score, micro- and macroscopic adhesion scales) (Example 5: 3 ml, 10 μg/ml, once, Day 28, control scored 7, p<0.01) | signs of adhesions in histological section of intestinal wall (van Gieson's staining) (Example 6, FIG. 4, 30 days after modelling)
1 | C[S+]([O-])c1ccc(-c2nc(-c3ccc(F)cc3)c(-c3ccncc3)[nH]2)cc1 (stereo not shown) [SB203580, 4-(4-fluorophenyl)-2-(4-methylsulfinylphenyl)-5-(4-pyridyl)-1H-imidazole] | No signs of adhesions | No cases of intestinal wall adhesions | 2 | –
2 | Conjugates of Polyvinylimidazole and 4-(4-Fluorinephenyl)-2-(4-Methylsulphinylphenyl)-5-(4-Pyridyl)-1H-Imidazole [Example 3] | – | – | – | No signs of adhesions
